These results are taken from patent publication US5366958A, “Localized delivery using fibronectin conjugates” (The Liposome Company, Inc., priority 1993, dated 1994).

Series [1] is classed as in vivo, mouse (female Swiss Webster). To be noted: intra-articular, 2 ul, normalized to maximum possible value of 100%. On the procedure: For this example control SPLVs were prepared as described in Section 4.3. using the following formulation: 100 mg EPC, 3.7 mg PE, and 10 mg indomethacin were dissolved in chloroform and then dried down to a film. The indomethacin was entrapped in the SPLVs by resuspending the film in ether, adding the aqueous phase and sonicating while evaporating. Trace amounts of radiolabeled ^14 C-indomethacin were incorporated to quantify retention of drug in joints of injected test animals.
Twenty-five female Swiss Webster mice were anesthetized with 50 mg/kg pentobarbitol and divided into 5 treatment groups. Group 1 was treated with unentrapped ^14 C-indomethacin (trace amount) in PBS buffer solution. Group 2 was treated with ^14 C-indomethacin entrapped in SPLVs (control SPLVs). Group 3 was treated with fibronectin-modified control SPLVs (non-covalent association) prepared by incubation of the SPLV-entrapped ^14 C-indomethacin with 0.3 mg fibronectin (FN, Seragen, Inc., Boston, Mass.; or Collaborative Research, Inc., Lexington, Mass.) for 2 hours before the SPLVs were repeatedly washed to remove unincorporated materials. Groups 4 and 5 were treated with SPLVs in which fibronectin was covalently attached to the liposomes. […] Two drops of glacial acetic acid were then added and samples were dark adapted over night before radioactivity was determined.

The conditions of series [2]: ocular application; cited from earlier work.

For the molecule `COc1ccc2c(c1)c(CC(=O)O)c(C)n2C(=O)c1ccc(Cl)cc1` [Unentrapped 14C-Indomethacin, indomethacin], the “% Total 14C-Indomethacin Remaining in Joint, 5 Hours” value in series [1] (5 hours post-injection) stood at 4.7%. For the same molecule, the “% Total 14C-Indomethacin Remaining in Joint, 24 Hours” value in series [1] (24 hours post-injection) came out at 1.0%. For the molecule fibronectin, in series [2], the “effectiveness in treating recurrent corneal erosion” value is listed as “effective”.
